Literature values, collected in patent US9442092B2, “Methods for treatment of autism” (priority 2011, dated 2016).

Assays:
[1] = in vivo

Compound	Increase of HIV levels (HIV) [%]	Association with Autism [1]
COc1cc2c(c3oc(=O)c4c(c13)CCC4=O)[C@@H]1C=CO[C@@H]1O2 [Aflatoxin]	500	–
CN1C(=O)[C@]23CC4=CC=C[C@H](O)[C@H]4N2C(=O)[C@@]1(CO)SS3 [gliotoxin, Gliotoxin]	500	–
CC(C)Cc1ccc(C(C)C(=O)O)cc1 (stereo not drawn) [Ibuprofen]	–	no association
